In the supplement of paper PMC10627819:

Assays:
S. pneumoniae D39V [1] = test: Bliss interaction score (quartile over a dose matrix) (fitness difference); higher = more antagonism (negative = synergy)
How it was run: (§1)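 Each OD595 reading at entry into stationary phase was scaled to the robust mean of the untreated wells on its plate, with a ceiling of 1. These ratios define fitness, and single-drug fitness was inferred from combinations. The Bliss score compares observed fitness with the product-based expectation and is reported as quartiles across all replicate types, technical, biological and donor/recipient.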

S. aureus DSM 20231 [2] = test: as above
How it was run: as §1

S. aureus Newman [3] = test: as above
How it was run: as §1

B. subtilis 168 [4] = test: as above
How it was run: as §1

S. pneumoniae D39V [5] = test: fitness (endpoint OD595 vs no drug) (fraction); higher = more growth
How it was run: (§2)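 Background-subtracted growth curves were the basis for fitness, taken as the optical density at entry into stationary phase over the robust mean of no-drug control wells. A cap of 1 was applied. The curves came from OD595 readings every 30 min for 14 h at 37 °C, in 384-well plates seeded at OD595 0.01 with 30 µl, or 55 µl for S. pneumoniae.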

S. aureus Newman [6] = test: as above
How it was run: as §2

B. subtilis 168 [7] = test: as above
How it was run: as §2

S. aureus DSM 20231 [8] = test: as above
How it was run: as §2
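For Bliss interaction score (quartile over a dose matrix) in this document: first quartile when negative (synergy) and third quartile when positive (antagonism).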

Cc1ncc([N+](=O)[O-])n1CCO [Metronidazole] + CN(C)c1cc(NC(=O)CNC(C)(C)C)c(O)c2c1C[C@H]1C[C@H]3[C@H](N(C)C)C(O)=C(C(N)=O)C(=O)[C@@]3(O)C(O)=C1C2=O [Tigecycline]
Conditions | Bliss interaction score
B. subtilis 168 [4] | -0.0624
S. aureus DSM 20231 [2] | 0.0589
S. aureus Newman [3] | 0.0458
S. pneumoniae D39V [1] | 0.0439

fitness
Conditions | first compound 0.625 µg/mL | first compound 1.073 µg/mL | first compound 1.25 µg/mL | first compound 2.145 µg/mL | first compound 2.5 µg/mL | first compound 4.29 µg/mL | first compound 5 µg/mL
B. subtilis 168 [7], partner 0.039 µg/mL | 0.963 | – | 0.977 | – | ≥ 1 | – | –
B. subtilis 168 [7], partner 0.078 µg/mL | 0.942 | – | 0.94 | – | 0.976 | – | –
B. subtilis 168 [7], partner 0.156 µg/mL | 0.944 | – | 0.963 | – | 0.938 | – | –
S. aureus Newman [6], partner 0.039 µg/mL | 0.987 | – | ≥ 1 | – | 0.995 | – | –
S. aureus Newman [6], partner 0.078 µg/mL | ≥ 1 | – | 0.981 | – | ≥ 1 | – | –
S. aureus Newman [6], partner 0.156 µg/mL | 0.966 | – | 0.977 | – | ≥ 1 | – | –
S. pneumoniae D39V [5], partner 0.65 µg/mL | – | 0.931 | 0.965 | 0.925 | 0.968 | 0.935 | 0.964
S. pneumoniae D39V [5], partner 1.3 µg/mL | – | 0.931 | 0.94 | 0.938 | 0.943 | 0.949 | 0.952
S. pneumoniae D39V [5], partner 2.6 µg/mL | – | 0.921 | 0.957 | 0.911 | 0.964 | 0.943 | 0.952

fitness, one replicate
Conditions | first compound 0.625 µg/mL | first compound 0.781 µg/mL | first compound 1.25 µg/mL | first compound 1.562 µg/mL | first compound 2.5 µg/mL | first compound 3.124 µg/mL
B. subtilis 168 [7], partner 0.125 µg/mL | ≥ 1 | – | ≥ 1 | – | ≥ 1 | –
B. subtilis 168 [7], partner 0.25 µg/mL | 0.963 | – | 0.942 | – | 0.967 | –
B. subtilis 168 [7], partner 0.5 µg/mL | 0.917 | – | 0.927 | – | 0.968 | –
S. aureus Newman [6], partner 0.039 µg/mL | – | ≥ 1 | – | 0.971 | – | 0.932
S. aureus Newman [6], partner 0.078 µg/mL | – | ≥ 1 | – | ≥ 1 | – | ≥ 1
S. aureus Newman [6], partner 0.156 µg/mL | – | ≥ 1 | – | ≥ 1 | – | 0.959

COc1ccc(C[C@H](N)C(=O)N[C@H]2[C@@H](O)[C@H](n3cnc4c(N(C)C)ncnc43)O[C@@H]2CO)cc1 [Puromycin] + CN[C@@H]1[C@H](O[C@H]2[C@H](O[C@H]3[C@H](O)[C@@H](O)[C@H](N=C(N)N)[C@@H](O)[C@@H]3N=C(N)N)O[C@@H](C)[C@]2(O)C=O)O[C@@H](CO)[C@H](O)[C@H]1O [Streptomycin]
Conditions | Bliss interaction score
B. subtilis 168 [4] | -0.226
S. aureus DSM 20231 [2] | -0.193
S. aureus Newman [3] | 0.0431
S. pneumoniae D39V [1] | -0.0971

fitness
Conditions | first compound 0.39 µg/mL | first compound 0.78 µg/mL | first compound 1 µg/mL | first compound 1.56 µg/mL | first compound 2 µg/mL | first compound 4 µg/mL
B. subtilis 168 [7], partner 2 µg/mL | 0.908 | 0.878 | – | 0.796 | – | –
B. subtilis 168 [7], partner 4 µg/mL | 0.27 | 0.143 | – | 0.106 | – | –
B. subtilis 168 [7], partner 8 µg/mL | 0.0282 | 0.0233 | – | 0.0357 | – | –
S. aureus Newman [6], partner 1 µg/mL | ≥ 1 | 0.968 | – | 0.991 | – | –
S. aureus Newman [6], partner 2 µg/mL | ≥ 1 | 0.964 | – | 0.939 | – | –
S. pneumoniae D39V [5], partner 2 µg/mL | – | – | 0.933 | – | 0.914 | 0.739
S. pneumoniae D39V [5], partner 4 µg/mL | – | – | 0.956 | – | 0.906 | 0.746
S. pneumoniae D39V [5], partner 8 µg/mL | – | – | 0.876 | – | 0.784 | 0.567

S. pneumoniae D39V [5], partner 16 µg/mL, one replicate
Conditions | fitness
first compound 1 µg/mL | 0.748
first compound 2 µg/mL | 0.643
first compound 4 µg/mL | 0.254

C[C@@H]1O[C@@H]1P(=O)(O)O [Fosfomycin] + COc1cc(Cc2cnc(N)nc2N)cc(OC)c1OC [Trimethoprim]
Conditions | Bliss interaction score
B. subtilis 168 [4] | -0.112
S. aureus DSM 20231 [2] | 0.0599
S. aureus Newman [3] | 0.0927
S. pneumoniae D39V [1] | 0.158

fitness
Conditions | partner 0.125 µg/mL | partner 0.25 µg/mL | partner 0.5 µg/mL | partner 1 µg/mL
B. subtilis 168 [7], first compound 1.562 µg/mL | 0.572 | 0.405 | 0.35 | –
B. subtilis 168 [7], first compound 3.124 µg/mL | 0.447 | 0.369 | 0.218 | –
B. subtilis 168 [7], first compound 6.248 µg/mL | 0.307 | 0.236 | 0.0904 | –
S. aureus DSM 20231 [8], first compound 0.781 µg/mL | 0.592 | 0.56 | 0.182 | 0.0323
S. aureus DSM 20231 [8], first compound 1.562 µg/mL | 0.56 | 0.484 | 0.106 | 0.0286
S. aureus DSM 20231 [8], first compound 3.124 µg/mL | 0.499 | 0.327 | 0.0645 | 0.0282

fitness, B. subtilis 168 [7], one replicate
Conditions | partner 0.1 µg/mL | partner 0.2 µg/mL | partner 0.4 µg/mL | partner 1 µg/mL | partner 2 µg/mL
first compound 1.562 µg/mL | 0.649 | 0.564 | 0.397 | 0.17 | 0.119
first compound 3.124 µg/mL | 0.497 | 0.35 | 0.18 | 0.0628 | 0.0617
first compound 6.248 µg/mL | 0.209 | 0.101 | 0.0381 | 0.0277 | 0.0228

O=C(O)c1cn(C2CC2)c2cc(N3CCNCC3)c(F)cc2c1=O [Ciprofloxacin] + CCC[C@@H]1C[C@@H](C(=O)N[C@@H]([C@H]2O[C@H](SC)[C@H](O)[C@@H](O)[C@H]2O)[C@H](C)Cl)N(C)C1 [Clindamycin]
Conditions | Bliss interaction score
B. subtilis 168 [4] | 0.226
S. aureus DSM 20231 [2] | 0.0603
S. aureus Newman [3] | 0.157
S. pneumoniae D39V [1] | 0.061

Conditions | fitness
B. subtilis 168 [7], first compound 0.0098 µg/mL, partner 0.0625 µg/mL | 0.508
B. subtilis 168 [7], first compound 0.0098 µg/mL, partner 0.125 µg/mL | 0.394
B. subtilis 168 [7], first compound 0.0098 µg/mL, partner 0.25 µg/mL | 0.373
B. subtilis 168 [7], first compound 0.0195 µg/mL, partner 0.0625 µg/mL | 0.416
B. subtilis 168 [7], first compound 0.0195 µg/mL, partner 0.125 µg/mL | 0.337
B. subtilis 168 [7], first compound 0.0195 µg/mL, partner 0.25 µg/mL | 0.312
B. subtilis 168 [7], first compound 0.039 µg/mL, partner 0.0625 µg/mL | 0.39
B. subtilis 168 [7], first compound 0.039 µg/mL, partner 0.125 µg/mL | 0.311
B. subtilis 168 [7], first compound 0.039 µg/mL, partner 0.25 µg/mL | 0.303
S. aureus Newman [6], first compound 0.0375 µg/mL, partner 0.0312 µg/mL | 0.545
S. aureus Newman [6], first compound 0.0375 µg/mL, partner 0.0625 µg/mL | 0.425
S. aureus Newman [6], first compound 0.0375 µg/mL, partner 0.125 µg/mL | 0.11
S. aureus Newman [6], first compound 0.075 µg/mL, partner 0.0312 µg/mL | 0.604
S. aureus Newman [6], first compound 0.075 µg/mL, partner 0.0625 µg/mL | 0.475
S. aureus Newman [6], first compound 0.075 µg/mL, partner 0.125 µg/mL | 0.153
S. aureus Newman [6], first compound 0.15 µg/mL, partner 0.0312 µg/mL | 0.335
S. aureus Newman [6], first compound 0.15 µg/mL, partner 0.0625 µg/mL | 0.292
S. aureus Newman [6], first compound 0.15 µg/mL, partner 0.125 µg/mL | 0.104
S. pneumoniae D39V [5], first compound 0.125 µg/mL, partner 0.0125 µg/mL | 0.763
S. pneumoniae D39V [5], first compound 0.125 µg/mL, partner 0.015 µg/mL | 0.8
S. pneumoniae D39V [5], first compound 0.125 µg/mL, partner 0.025 µg/mL | 0.531
S. pneumoniae D39V [5], first compound 0.125 µg/mL, partner 0.03 µg/mL | 0.54
S. pneumoniae D39V [5], first compound 0.125 µg/mL, partner 0.05 µg/mL | 0.2
S. pneumoniae D39V [5], first compound 0.125 µg/mL, partner 0.06 µg/mL | 0.325
S. pneumoniae D39V [5], first compound 0.25 µg/mL, partner 0.0125 µg/mL | 0.733
S. pneumoniae D39V [5], first compound 0.25 µg/mL, partner 0.025 µg/mL | 0.494
S. pneumoniae D39V [5], first compound 0.25 µg/mL, partner 0.05 µg/mL | 0.168
S. pneumoniae D39V [5], first compound 0.5 µg/mL, partner 0.0125 µg/mL | 0.636
S. pneumoniae D39V [5], first compound 0.5 µg/mL, partner 0.015 µg/mL | 0.564
S. pneumoniae D39V [5], first compound 0.5 µg/mL, partner 0.025 µg/mL | 0.434
S. pneumoniae D39V [5], first compound 0.5 µg/mL, partner 0.03 µg/mL | 0.431
S. pneumoniae D39V [5], first compound 0.5 µg/mL, partner 0.05 µg/mL | 0.158
S. pneumoniae D39V [5], first compound 0.5 µg/mL, partner 0.06 µg/mL | 0.294

fitness, one replicate
Conditions | partner 0.0039 µg/mL | partner 0.0078 µg/mL | partner 0.015 µg/mL | partner 0.0156 µg/mL | partner 0.03 µg/mL | partner 0.06 µg/mL
B. subtilis 168 [7], first compound 0.0098 µg/mL | ≥ 1 | 0.403 | – | 0.818 | – | –
B. subtilis 168 [7], first compound 0.0195 µg/mL | 0.903 | 0.394 | – | 0.742 | – | –
B. subtilis 168 [7], first compound 0.039 µg/mL | 0.627 | 0.326 | – | 0.557 | – | –
S. pneumoniae D39V [5], first compound 0.25 µg/mL | – | – | 0.708 | – | 0.454 | 0.259
